Test results: patent US7811797B2, “α-isomaltosylglucosaccharide-forming enzyme, process and uses of the same” (Kabushiki Kaisha Hayashibara Seibutsu Kagaku Kenkyujo, priority 2000, dated 2010)

Columns and labels:
[1] = Saturation concentration of cyclotetrasaccharide in water; format: physicochemical
From the text: Each resulting saturated solution of cyclotetrasaccharide was membrane filtered to remove undissolved cyclotetrasaccharide, and each filtrate was then examined for moisture content by the drying loss method to determine a saturation concentration of cyclotetrasaccharide at respective temperatures.

Inclusion action = format: physicochemical
Procedure: To 100 g of the aqueous solution was added 2 g of methanol, 3 g of ethanol, or 4.6 g acetic acid to be included by the cyclotetrasaccharide. Thereafter, each of the resulting solutions was filtered to remove non-included products, and the filtrate was dried in vacuo. As a control, similar inclusion products were prepared by using “ISOELITE™ P”, a branched cyclodextrin commercialized by Maruha K.K., Tokyo, Japan, which were known to have inclusion ability.
To measure the amount of the inclusion products in the resulting lyophilized powders, one gram of each powder was dissolved in five milliliters water and extracted after admixing with five milliliters of diethylether. The extraction was repeated, and the resulting extracts were quantified on gas chromatography.

[2] = Reducing power on the Somogyi-Nelson's method; format: physicochemical
Salivary amylase = target: T1, Salivary amylase (Homo sapiens, UniProt P0DUB6)
T1 sequence (P0DUB6 16-511): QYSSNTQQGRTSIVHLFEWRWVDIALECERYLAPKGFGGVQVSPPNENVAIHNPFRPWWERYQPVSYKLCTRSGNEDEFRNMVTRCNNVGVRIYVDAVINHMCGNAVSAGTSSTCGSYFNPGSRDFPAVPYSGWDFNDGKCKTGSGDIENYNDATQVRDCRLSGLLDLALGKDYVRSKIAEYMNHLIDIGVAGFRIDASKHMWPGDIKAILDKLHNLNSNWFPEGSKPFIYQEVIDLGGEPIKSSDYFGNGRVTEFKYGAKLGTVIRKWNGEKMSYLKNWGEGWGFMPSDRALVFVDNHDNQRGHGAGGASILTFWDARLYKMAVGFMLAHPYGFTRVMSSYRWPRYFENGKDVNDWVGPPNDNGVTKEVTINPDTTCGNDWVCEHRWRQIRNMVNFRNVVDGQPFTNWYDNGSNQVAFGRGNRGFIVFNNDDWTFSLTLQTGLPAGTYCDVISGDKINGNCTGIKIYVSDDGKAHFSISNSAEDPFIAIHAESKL

[3] = tested on: α-isomaltosylglucosaccharide-forming enzyme; assay: Transfer-acceptor specificity, Enzyme of Strain C11; format: biochemical, Bacillus globisporus C11; conditions: acceptor 1.6%, PINE-DEX #100 donor 4%, one unit/g donor, 30° C., pH 6.0, 24 hours

Compound | Saturation concentration (%) ([1]; 10° C.) | Saturation concentration (%) ([1]; 30° C.) | Saturation concentration (%) ([1]; 50° C.) | Saturation concentration (%) ([1]; 70° C.) | Saturation concentration (%) ([1]; 90° C.) | inclusion ability relative to that of the branched cyclodextrin (Inclusion action; by weight) | Inclusion amount (mg/g lyophilized powder) (Inclusion action; inclusion product Acetic acid) | Inclusion amount (mg/g lyophilized powder) (Inclusion action; inclusion product Ethanol) | Inclusion amount (mg/g lyophilized powder) (Inclusion action; inclusion product Methanol) | reducing power [2] | Decomposition percentage (%) by digestive enzyme (Salivary amylase) [%] | Product of transferring reaction, Enzyme of Strain C11 [3]
OCC1OC2OCC3O[C@H](O[C@H]4C(O)C(CO)OC(OCC5O[C@H](O[C@@H](C1O)C2O)C(O)C(O)[C@@H]5O)C4O)C(O)C(O)[C@@H]3O (stereo partly drawn) [Cyclotetrasaccharide, cyclo{→6)-α-D-glucopyranosyl-(1→3)-α-D-glucopyranosyl-(1→6)-α-D-glucopyranosyl-(1→3)-α-D-glucopyransoyl-(1→}] | 30.3 | 34.2 | 42.6 | 53.0 | 70.5 | about 2 folds | 67.74 | 17.26 | 6.71 | below a detectable level | 0.0 | –
OC[C@@H](O)[C@@H](O[C@H]1O[C@H](CO)[C@@H](O)[C@H](O)[C@H]1O)[C@H](O)[C@@H](O)CO [Maltitol, reference compound] | – | – | – | – | – | – | – | – | – | – | – | ++ (a saccharide-transferred product was detected in an amount over ten percent through transfer reaction to acceptor)
